We go through 1 compound from publication PMC1764434 (PLoS Clinical Trials, 2007).

The nature of series [1]: Blood pharmacokinetics after oral dosing (fluorescence HPLC, noncompartmental WinNonlin model). The class given is in vivo, human. The settings on record: for AUC: read-out: AUCτ of metabolite; for MRT: read-out: MRT of metabolite (converted); for half-life: read-out: t1/2 of metabolite (converted). The procedure:
Study drugs were administered in the GCRC on an empty stomach between 8 and 9 AM the morning after admission (after fasting for ≥ 10 h).

The test system of series [2] is CQ-resistant P. falciparum. The settings on record: cited from earlier work.
The nature of series [3]: Urinary excretion and renal clearance (24-hour urine collections, days 1-3). The settings on record: days 1-3; AQ-72/AQ-13 and MDCQ/CQ.
[4] abbreviates: human, whole blood, oral, 1750 mg, after 1,750 mg AQ-13 over 3 d, median (range).
The mark [5] stands for this setting: human, whole blood, oral, after 700 mg AQ-13, median (range).
Setting [6] is: human, whole blood, after 600 mg oral dose of parent drug, median (range).

Like-named read-outs stand apart in the source and are kept apart here.

Consider `CCNCCCNc1ccnc2cc(Cl)ccc12` [AQ-72], for which, in series [1] (600 mg AQ-13, AQ-72/AQ-13 ratio), the “time after drug administration at which metabolite/parent ratio reached 1.0” value fell in the range of 3 to 6 days. Further, the “metabolite/parent ratio in blood at the Cmax of the parent drug” value in series [1] (600 mg dose, AQ-72/AQ-13 (mean) or MDCQ/CQ) is recorded as 0.37. The “time to appearance of metabolite in the blood” value in series [1] (after oral 600 or 700 mg AQ-13 or 600 mg CQ) is reported as not above 1 h. Besides, the AUC in series [1] (human, whole blood, oral, 700 mg, after 700 mg AQ-13, median (range)) stood at 262 µM·h; in series [1] (setting [4]), 440 µM·h; in series [1] (human, whole blood, po, 600 mg, after 600 mg oral dose of parent drug (CQ or AQ-13), whole blood, median (range)) it was 211 µM·h. In addition, the results for the MRT in series [1] (setting [4]), in series [1] (setting [5]) and in series [1] (setting [6]) were 17.4 days, 18.6 days and 16.6 days, respectively. The values for the half-life in series [1] (setting [4]), in series [1] (setting [5]) and in series [1] (setting [6]) were 10.5 days, 12.3 days and 11.1 days, respectively. Also, the Tmax in series [1] (human, whole blood, oral, after 600 mg AQ-13, median, read-out: Tmax of metabolite) turned out to be 15 h. In series [1] (human, whole blood, after 600 mg oral dose of parent drug, median, read-out: Cmax of metabolite), the Cmax came out at 590 nM. The “activity of major metabolite against CQ-resistant parasites” value in series [2] was “not active against CQ-resistant parasites”. In addition, in series [3], the “mono-dealkylated metabolite/parent ratio in urine” value came out at 23.6%.
